Source: US20230233500A1, “Gasdermin D (GSDMD) Succination for the Treatment of Inflammatory Disease” (University of Massachusetts, priority 2020, published 2023)
Entries after “also recorded” stand apart in the source; their conditions may differ. Where a name gives a salt, the structure may show the parent alone. Read-outs that look alike come from different tables or passages of the source.

How the values were obtained:
GSDMD = biological target: T1, GSDMD (Mus musculus, UniProt Q9D8T2); experiment: MMF-Yne click chemistry labeling and streptavidin pulldown in BMDM lysates; type: binding
T1 construct: We also immunoprecipitated GSDMD from fumarate treated BMDMs; endogenous in cells; host or cells: primary mouse BMDMs
T1 sequence (Q9D8T2 1-487): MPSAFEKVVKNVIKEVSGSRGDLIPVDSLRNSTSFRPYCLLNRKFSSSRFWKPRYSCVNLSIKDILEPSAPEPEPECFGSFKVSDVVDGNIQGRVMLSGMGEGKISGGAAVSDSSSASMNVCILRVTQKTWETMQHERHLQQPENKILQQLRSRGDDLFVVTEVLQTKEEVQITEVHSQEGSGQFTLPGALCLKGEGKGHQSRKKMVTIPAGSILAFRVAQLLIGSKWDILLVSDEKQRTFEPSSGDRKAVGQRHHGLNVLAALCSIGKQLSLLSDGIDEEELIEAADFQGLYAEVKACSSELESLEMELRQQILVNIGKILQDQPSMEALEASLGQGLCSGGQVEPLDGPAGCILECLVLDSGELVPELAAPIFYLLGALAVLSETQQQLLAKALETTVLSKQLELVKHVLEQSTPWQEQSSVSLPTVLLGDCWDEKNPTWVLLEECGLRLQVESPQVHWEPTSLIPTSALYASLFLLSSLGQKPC
Protocol: FIG. 10. Illustrative schematic of click-chemistry based proteomics. Schematic representation of MMF-Yne proteomics. Primary WT BMDMs were treated with LPS for 2 hrs, MMF-Yne for 1 hour and nigericin (10 μM) for 1 hour. Lysates were subsequently Cu2+ clicked using a biotin-azide and streptavidin beads for pulldown of MMF-Yne interacting proteins. Streptavidin beads were digested using trypsin, reduced and alkylated and subjected to mass spec analysis.
Cells treated with or without the MMF-Alkyne probe were lysed and quantified by protein DC assay. Proteome samples (2 mg/ml) were incubated with TCEP, TBTA ligand, copper sulphate and Biotin Azide for 1 hour at room temperature with vortexing every 15 minutes. Precipitated proteins were centrifuged for 5 minutes at 4,600 g. Protein pellets were washed twice with ice cold methanol and sonicated in 1.2% SDS. Samples were heated at 95° C. for 5 minutes and diluted to a final volume of […] with PBS (0.2% SDS). An aliquot of the post-clicked lysate was retained and the remainder was incubated with streptavidin beads on a rotator overnight at 4 C. Samples were rotated at room temperature for 2 hours to resolubilize the SDS. Beads were washed five times with 0.2% SDS/PBS and placed on a rotator for 10 minutes in between washes. Beads were washed with ultra-pure water a further 3 times. […]

[1] = tested on: Mefv^V726/V726 mouse model; experiment: Familial Mediterranean Fever Mefv V726/V726 mouse model; type: in vivo; settings: for weight (weight loss / weight gain): diet containing dimethyl fumarate (100 mg/kg/day; 0.1% DMF) for 6 weeks; for GSDMD-N (GsdmD-p30) formation in spleen: immunoblot
Protocol: FIGS. 15A-E. Fumarate alleviates FMF. (A-D) Weight gain (A), spleen weight (B), ELISA of serum IL-1B and immunoblot of spleen GSDMD (D) liver H&E (E) from Mefv726/726 receiving vehicle diet or a diet containing dimethyl fumarate (100 mg/kg/day) for 6 weeks. Data points indicative of individual mice. *, P<0.05 ***, P<0.001 (t-test or Two-way ANOVA). Error bars show means±SEM.
All animal experiments were approved by the Institutional Animal Care Use Committees at the University of Massachusetts Medical School. Animal were kept in specific pathogen free (SPF) environment. Male and female C57/BL6 and Gsdmd−/− mice were used. Gsdmd−/− mice were generated as previously described (22). MefvV726/V726 mice were a gift from Prof. Daniel Kastner (23). Sample sizes used are in line with other similar published studies. All animals were used at age 8-12 weeks.
DMF embedded mouse diet was formulated by Lab Diets®. DMF was added to a base diet of laboratory lab diet 5001 at a dose 100 mg/kg/day of consumption. Mice received the control base diet or the DMF containing diet for 6 weeks.

CD14+ monocytes = experiment: LPS-Nig induced cell death and LDH release in primary CD14+ monocytes; type: cell-based, human; settings: fumarate 25 μM
Protocol: FIGS. 6A-G. Fumarate inhibits pyroptosis in Human cells. (A-B) Representative images (A) and kinetic data (B) of SYTOX Orange and Hoechst-stained PMA-differentiated THP1 cells treated with LPS for 2 hours, DMSO (vehicle) or fumarate (25 μM) for 1 hour and nigericin (10 μM) for 6 hours. (C) LDH release from (A). (D-E) Kinetic cell death data of SYTOX Orange and Hoechst stained (D) or LDH assay of conditioned medium from primary CD14+ positive monocytes treated with LPS for 2 hours DMSO (vehicle) or fumarate (25 μM) for 1 hour and nigericin (10 μM) for 6 hours. (F) LC/MS quantification of fumarate in WT BMDMs treated with LPS for 2 hours, FHIN1 for 1 hour and nigericin for 1 hour. (G) Representative images of WT primary BMDMs stained with SYTOX Orange and Hoechst following treatment with LPS for 2 hours, DMSO (vehicle) or fumarate (25 μM) or FHIN1 (25 μM) for 1 hour and nigericin for a timecourse of 6 hours. A, B, D, G are representative of 3 independent experiments. C, E, F are pooled data from 3 independent experiments. ***, P<0.001, ****, P<0.00001 (Students t-test). Error bars show mean±SD (B, D) or SEM (C, E). Cells were plated, treated and incubated in phenol red free medium. Following treatment medium was collected and assessed for LDH release using the CytoTox96 non-radioactive cytotoxicity assay (Promega) as per manufacturer's instructions. […]

h.GSDME = biological target: T2, h.GSDME (Homo sapiens, UniProt O60443); experiment: In vitro succination reaction with LC-MS/MS peptide mapping; type: binding
T2 sequence (O60443 1-496): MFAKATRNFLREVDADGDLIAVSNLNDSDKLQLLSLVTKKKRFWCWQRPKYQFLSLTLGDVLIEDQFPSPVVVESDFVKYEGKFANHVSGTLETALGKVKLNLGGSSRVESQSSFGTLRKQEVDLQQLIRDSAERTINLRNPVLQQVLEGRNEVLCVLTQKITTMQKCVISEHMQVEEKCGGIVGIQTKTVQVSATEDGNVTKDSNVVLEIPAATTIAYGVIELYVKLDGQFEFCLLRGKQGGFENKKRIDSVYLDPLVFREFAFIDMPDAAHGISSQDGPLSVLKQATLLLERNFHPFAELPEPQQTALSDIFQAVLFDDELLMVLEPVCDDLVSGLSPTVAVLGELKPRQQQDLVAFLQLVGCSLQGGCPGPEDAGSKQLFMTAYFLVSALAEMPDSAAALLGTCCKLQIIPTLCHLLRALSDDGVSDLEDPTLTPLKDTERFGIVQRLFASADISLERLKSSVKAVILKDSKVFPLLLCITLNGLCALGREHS

[2] = diet containing dimethyl fumarate for 6 weeks
[3] = diet containing dimethyl fumarate for 6 weeks, listed as DMF

## COC(=O)/C=C/C(=O)OC [Fumarate, Dimethyl fumarate]
GSDMD; streptavidin pulldown from clicked lysates
  MMF-Yne labeling of GSDMD in presence of competitor: blocked
GSDMD; streptavidin-IR dye immunoblot
  MMF-Yne signal in pyroptotic lysates in presence of unlabeled competitor: reduced
[1]
  weight (weight loss / weight gain): alleviated
[1]; listed as DMF
  weight (weight loss / weight gain): increased weight
[1]; [2]
  IL-1β secretion (serum): alleviated
  spleen size (splenomegaly): alleviated
  GSDMD-N (GsdmD-p30) formation in spleen: alleviated
[1]; diet containing dimethyl fumarate for 6 weeks, H&E
  liver pathology: alleviated
[1]; [3]
  GSDMD-N (GsdmD-p30) formation in spleen: reduced levels
  spleen size (splenomegaly): reduced spleen size
[1]; diet including 0.1% DMF
  fibrosis of liver and lung: reduction in fibrosis
  runting: rescue of runting
CD14+ monocytes
  LPS-Nig induced LDH release: blocked
CD14+ monocytes; SYTOX Orange
  LPS-Nig induced cell death: blocked
h.GSDME
  In vitro cysteine succination sites: Cys^45
h.GSDME; listed as DMF
  In vitro cysteine succination sites: Cys235; also recorded: Cys371; also recorded: Cys408; also recorded: Cys489; also recorded: Cys45; also recorded: Cys156; also recorded: Cys180
